Laboratory results: patent US8148391B2 (Cephalon, Inc., priority 2006, dated 2012)
Where two headings read alike, the source gives them in different places. Blank lines part the entries; values can stand above or below the compound they belong to.

Tests used:
[1] = target: T1, c-Met (cytoplasmic domain) (Homo sapiens, UniProt P08581); experiment: c-Met Kinase Assay (same methods as for ALK, with modifications); type: biochemical
T1 construct: 10 ng/mL c-Met (cytoplasmic domain, Invitrogen Corporation #PV3143); purchased Invitrogen Corporation PV3143
T1 sequence (P08581 956-1390 limits assumed): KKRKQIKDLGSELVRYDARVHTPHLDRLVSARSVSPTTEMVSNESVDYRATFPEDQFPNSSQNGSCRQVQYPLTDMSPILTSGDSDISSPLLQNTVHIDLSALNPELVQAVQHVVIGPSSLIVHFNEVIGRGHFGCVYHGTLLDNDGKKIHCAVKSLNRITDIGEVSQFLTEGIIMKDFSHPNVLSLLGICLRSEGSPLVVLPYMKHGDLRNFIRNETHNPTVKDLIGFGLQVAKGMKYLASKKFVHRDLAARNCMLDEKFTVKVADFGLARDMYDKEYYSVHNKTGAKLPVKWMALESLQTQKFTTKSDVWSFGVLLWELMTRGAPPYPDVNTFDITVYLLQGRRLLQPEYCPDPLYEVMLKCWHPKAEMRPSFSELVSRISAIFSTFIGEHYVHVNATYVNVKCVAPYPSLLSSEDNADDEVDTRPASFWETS
Method in brief: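 Plates were coated with phospholipase C-γ substrate (10 μg/mL) in TBS, and the reaction was started with 10 ng/mL c-Met cytoplasmic domain and run 15 min at 37 °C. Phosphoproduct was detected with Eu-N1-labelled PT66 antibody. IC50 came from a variable-slope sigmoidal fit of percent inhibition vs log concentration.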

[2] = target: T2, baculovirus-expressed ALK (Homo sapiens, UniProt Q9UM73); experiment: ALK Kinase Assay (ELISA-type, time-resolved fluorescence); type: biochemical
T2 construct: host or cells: baculovirus expression system
T2 sequence (Q9UM73 19-1620): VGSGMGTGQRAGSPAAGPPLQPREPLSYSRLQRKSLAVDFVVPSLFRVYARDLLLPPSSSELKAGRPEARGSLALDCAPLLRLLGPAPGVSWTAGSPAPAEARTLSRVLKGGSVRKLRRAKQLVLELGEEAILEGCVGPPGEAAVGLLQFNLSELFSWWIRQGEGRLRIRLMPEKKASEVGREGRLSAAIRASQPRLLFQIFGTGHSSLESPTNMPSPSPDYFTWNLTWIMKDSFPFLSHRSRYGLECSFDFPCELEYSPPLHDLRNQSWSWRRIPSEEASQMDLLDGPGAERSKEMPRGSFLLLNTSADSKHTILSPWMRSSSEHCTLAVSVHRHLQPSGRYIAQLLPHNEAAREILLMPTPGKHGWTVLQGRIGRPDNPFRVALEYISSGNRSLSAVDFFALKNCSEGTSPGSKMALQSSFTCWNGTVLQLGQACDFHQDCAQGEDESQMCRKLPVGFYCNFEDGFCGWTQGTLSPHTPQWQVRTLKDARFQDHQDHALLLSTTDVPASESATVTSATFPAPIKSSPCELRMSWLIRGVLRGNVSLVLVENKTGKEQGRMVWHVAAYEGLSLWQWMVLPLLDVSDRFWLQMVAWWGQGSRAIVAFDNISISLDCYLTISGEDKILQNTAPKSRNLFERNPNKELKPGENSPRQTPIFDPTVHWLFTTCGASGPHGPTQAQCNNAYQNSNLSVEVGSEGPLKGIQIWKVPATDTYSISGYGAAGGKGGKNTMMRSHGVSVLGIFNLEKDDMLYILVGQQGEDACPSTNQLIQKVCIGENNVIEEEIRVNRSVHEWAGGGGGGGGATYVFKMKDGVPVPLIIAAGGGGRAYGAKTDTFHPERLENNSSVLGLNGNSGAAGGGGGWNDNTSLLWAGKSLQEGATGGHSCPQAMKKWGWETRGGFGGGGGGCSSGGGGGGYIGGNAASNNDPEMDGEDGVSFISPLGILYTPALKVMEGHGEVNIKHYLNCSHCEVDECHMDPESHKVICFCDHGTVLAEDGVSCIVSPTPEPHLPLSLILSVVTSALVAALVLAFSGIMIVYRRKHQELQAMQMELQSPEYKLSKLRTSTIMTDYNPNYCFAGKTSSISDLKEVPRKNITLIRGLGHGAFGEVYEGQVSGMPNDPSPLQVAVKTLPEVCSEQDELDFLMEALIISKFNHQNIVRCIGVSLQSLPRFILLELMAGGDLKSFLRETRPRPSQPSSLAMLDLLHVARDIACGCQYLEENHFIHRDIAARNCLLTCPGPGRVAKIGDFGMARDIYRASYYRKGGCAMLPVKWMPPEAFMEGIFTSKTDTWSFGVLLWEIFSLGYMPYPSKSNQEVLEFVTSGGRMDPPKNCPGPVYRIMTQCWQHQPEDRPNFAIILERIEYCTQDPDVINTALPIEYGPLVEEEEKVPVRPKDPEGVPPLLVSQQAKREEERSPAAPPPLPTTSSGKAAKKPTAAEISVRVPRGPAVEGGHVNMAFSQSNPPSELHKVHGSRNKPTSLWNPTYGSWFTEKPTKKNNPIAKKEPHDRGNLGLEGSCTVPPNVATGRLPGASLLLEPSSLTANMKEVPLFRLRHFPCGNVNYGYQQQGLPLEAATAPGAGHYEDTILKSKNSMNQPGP
Method in brief: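 Plates coated with phospholipase C-γ substrate (10 μg/mL in TBS); reaction started with 30 ng/ml ALK and run 15 min at 37° C. Phosphorylated substrate detected with Eu-N1-labeled PT66 antibody. IC50 from sigmoidal variable-slope fit of percent inhibition vs log concentration.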

[3] = 1 μM ATP (Km level), 10 ng/mL c-Met, read-out: cMet Activity (c-Met kinase inhibition, IC50 class)
[4] = 1 μM ATP (Km level), 30 ng/ml ALK, 37° C., 15 minutes, read-out: ALK Activity (ALK kinase inhibition, IC50 class)
[5] = c-Met kinase inhibition, 1 μM ATP, read-out: cMet Activity
[6] = ALK kinase inhibition, 1 μM ATP, read-out: ALK Activity
[7] = 1 μM ATP (Km level), read-out: cMet Activity (c-Met Kinase Inhibition, IC50)
[8] = 1 μM ATP (Km level), read-out: ALK Activity (ALK Kinase Inhibition, IC50)
[9] = c-Met kinase inhibition, 1 μM ATP (Km level), read-out: cMet Activity
[10] = ALK kinase inhibition, 1 μM ATP (Km level), read-out: ALK Activity

IC50 [1, 3]: 1 to 10 µM
IC50 [2, 4]: < 0.1 µM
Compound: COc1cc2c(cc1Nc1ncc(Cl)c(Nc3ccccc3S(=O)(=O)C(C)C)n1)CCN(CCS(C)(=O)=O)CC2 [Example 1164, 5-Chloro-N*2*-[3-(2-methanesulfonyl-ethyl)-8-methoxy-2,3,4,5-tetrahydro-1H-benzo[d]azepin-7-yl]-N*4*-[2-(propane-2-sulfonyl)-phenyl]-pyrimidine-2,4-diamine]

IC50 [1, 5]: < 0.1 µM
IC50 [2, 6]: 0.1 to 1 µM
Compound: CNC(=O)c1ccccc1Nc1nc(Nc2ccc3c(c2)-n2ccnc2CCC3)ncc1Cl [Example 1836, 2-[5-Chloro-2-(5,6-dihydro-4H-3,10b-diaza-benzo[e]azulen-9-ylamino)-pyrimidin-4-ylamino]-N-methyl-benzamide]

IC50 [1, 7]: > 10 µM
IC50 [2, 8]: < 0.1 µM
Compound: COc1cc2c(cc1Nc1ncc(Cl)c(Nc3ccccc3S(=O)(=O)N3CC[C@H](N(C)C)C3)n1)CCN(CC(=O)N(C)C)CC2 [Example 846, 2-(7-{5-Chloro-4-[2-((S)-3-dimethylamino-pyrrolidine-1-sulfonyl)-phenylamino]-pyrimidin-2-ylamino}-8-methoxy-1,2,4,5-tetrahydro-benzo[d]azepin-3-yl)-N,N-dimethyl-acetamide]

IC50 [1, 9]: > 10 µM
IC50 [2, 10]: < 0.1 µM
Compound: COc1cc(N2CCOCC2)ccc1Nc1nc(Nc2ccc3c(c2OC)CCCC(=O)N3C)ncc1Cl [Example 117, 7-[5-Chloro-4-(2-methoxy-4-morpholin-4-yl-phenylamino)-pyrimidin-2-ylamino]-6-methoxy-1-methyl-1,3,4,5-tetrahydro-benzo[b]azepin-2-one]

IC50 [1, 3]: < 0.1 µM
IC50 [2, 4]: 0.1 to 1 µM
Compound: CNC(=O)c1cccc(F)c1Nc1nc(Nc2ccc3c(c2)-n2cccc2C=CO3)ncc1Cl [Example 1269, 2-[5-Chloro-2-(6-oxa-10b-aza-benz[e]azulen-9-ylamino)-pyrimidin-4-ylamino]-3-fluoro-N-methyl-benzamide]

IC50 [1, 3]: 1 to 10 µM
IC50 [2, 4]: > 10 µM
Compound: COc1cccc(C(=O)NCCC#N)c1Nc1nc(Nc2ccc3c(c2)C(C)(C)CCC(=O)N3)ncc1Cl [Example 1061, 2-[5-Chloro-2-(5,5-dimethyl-2-oxo-2,3,4,5-tetrahydro-1H-benzo[b]azepin-7-ylamino)-pyrimidin-4-ylamino]-N-(2-cyano-ethyl)-3-methoxy-benzamide]

IC50 [1, 9]: < 0.1 µM
IC50 [2, 10]: < 0.1 µM
Compound: CNS(=O)(=O)c1ccccc1Nc1nc(Nc2ccc3c(c2)CCCC(=O)N3CC(=O)OC)ncc1Cl [Example 8, {7-[5-Chloro-4-(2-methylsulfamoyl-phenylamino)-pyrimidin-2-ylamino]-2-oxo-2,3,4,5-tetrahydro-benzo[b]azepin-1-yl}-acetic acid methyl ester]

IC50 [1, 3]: > 10 µM
IC50 [2, 4]: < 0.1 µM
Compound: CNC(=O)c1ccccc1Nc1nc(Nc2cc3c(cc2OC)CCC(NCCO)CC3)ncc1Cl (stereo not shown) [Example 1092, 2-{5-Chloro-2-[7-(2-hydroxy-ethylamino)-3-methoxy-6,7,8,9-tetrahydro-5H-benzocyclohepten-2-ylamino]-pyrimidin-4-ylamino}-N-methyl-benzamide]

Continued, compound first:

Compound: CC(C)[C@H](Nc1nc(Nc2ccc3c(c2)CCOC(=O)N3C)ncc1Cl)C(N)=O [Example 1764, (S)-2-[5-chloro-2-(5-methyl-6-oxo-5,6,8,9-tetrahydro-7-oxa-5-aza-benzocyclohepten-2-ylamino)-pyrimidin-4-ylamino]-3-methyl-butyramide]
IC50 [1, 5]: > 10 µM
IC50 [2, 6]: 1 to 10 µM

Compound: CCN1C(=O)CN(CCOC)Cc2cc(OC)c(Nc3ncc(Cl)c(Nc4ccc(N5CCOCC5)cc4OC)n3)cc21 [Example 726, 8-[5-Chloro-4-(2-methoxy-4-morpholin-4-yl-phenylamino)-pyrimidin-2-ylamino]-1-ethyl-7-methoxy-4-(2-methoxy-ethyl)-1,3,4,5-tetrahydro-benzo[e][1,4]diazepin-2-one]
IC50 [1, 7]: > 10 µM
IC50 [2, 8]: 0.1 to 1 µM

Compound: CCN1C(=O)CCCc2c1ccc(Nc1ncc(Cl)c(NC3C4C=CC(C4)C3C(N)=O)n1)c2OC (stereo not drawn) [Example 121, (2-exo,3-exo)-3-[5-Chloro-2-(1-ethyl-6-methoxy-2-oxo-2,3,4,5-tetrahydro-1H-benzo[b]azepin-7-ylamino)-pyrimidin-4-ylamino]-bicyclo[2.2.1]hept-5-ene-2-carboxylic acid amide]
IC50 [1, 9]: > 10 µM
IC50 [2, 10]: < 0.1 µM

Compound: CN1C(=O)OCCc2cc(Nc3ncc(Cl)c(Nc4cccc5c4OC(F)(F)O5)n3)ccc21 [Example 1768, 2-[5-Chloro-4-(2,2-difluoro-benzo[1,3]dioxol-4-ylamino)-pyrimidin-2-ylamino]-5-methyl-8,9-dihydro-5H-7-oxa-5-aza-benzocyclohepten-6-one]
IC50 [1, 5]: 1 to 10 µM
IC50 [2, 6]: 0.1 to 1 µM

Compound: COc1cc2c(cc1Nc1ncc(Cl)c(Nc3ccccc3S(=O)(=O)N(C)C)n1)CCN(C(CF)CF)CC2 [Example 1393, {5-Chloro-2-[3-(2-fluoro-1-fluoromethyl-ethyl)-8-methoxy-2,3,4,5-tetrahydro-1H-benzo[d]azepin-7-ylamino]-pyrimidin-4-ylamino}-N,N-dimethyl-benzenesulfonamide]
IC50 [1, 3]: > 10 µM
IC50 [2, 4]: < 0.1 µM

Compound: COCCN1CCc2ccc(Nc3ncc(Cl)c(Nc4ccccc4OCC#N)n3)cc2CC1 [Example 1240, (2-{5-Chloro-2-[3-(2-methoxy-ethyl)-2,3,4,5-tetrahydro-1H-3-benzazepin-7-ylamino]-pyrimidin-4-ylamino}-phenoxy)-acetonitrile]
IC50 [1, 3]: < 0.1 µM
IC50 [2, 4]: < 0.1 µM

Compound: CCN1C(=O)CCCc2c1ccc(Nc1ncc(Cl)c(N[C@@H]3[C@@H]4C[C@@H]([C@@H](O)[C@H]4O)[C@@H]3C(N)=O)n1)c2OC [Example 1699, (1R,2S,3R,4S,5S,6R)-3-[5-Chloro-2-(1-ethyl-6-methoxy-2-oxo-2,3,4,5-tetrahydro-1H-benzo[b]azepin-7-ylamino)-pyrimidin-4-ylamino]-5,6-dihydroxy-bicyclo[2.2.1]heptane-2-carboxylic acid amide]
IC50 [1, 5]: > 10 µM
IC50 [2, 6]: 0.1 to 1 µM

Compound: CNC(=O)c1ccccc1Nc1nc(Nc2c(OC)ccc3c2CCC(N2CCOCC2)CC3)ncc1Cl (stereo not shown) [Example 1073, 2-[5-Chloro-2-(2-methoxy-7-morpholin-4-yl-6,7,8,9-tetrahydro-5H-benzocyclohepten-1-ylamino)-pyrimidin-4-ylamino]-N-methyl-benzamide]
IC50 [1, 3]: > 10 µM
IC50 [2, 4]: 0.1 to 1 µM

Compound: COCC(COC)N1CCc2cc(Nc3ncc(Cl)c(Nc4ccc(Cl)cc4S(=O)(=O)N(C)C)n3)c(OC)cc2CC1 [Example 838, 5-Chloro-2-{5-chloro-2-[8-methoxy-3-(2-methoxy-1-methoxymethyl-ethyl)-2,3,4,5-tetrahydro-1H-benzo[d]azepin-7-ylamino]-pyrimidin-4-ylamino}-N,N-dimethyl-benzenesulfonamide]
IC50 [1, 7]: > 10 µM
IC50 [2, 8]: < 0.1 µM

Compound: COc1c(Nc2ncc(Cl)c(Nc3ccccc3S(=O)(=O)N(C)C)n2)ccc2c1CCC(NCC(F)(F)F)CC2 (stereo not shown) [Example 684, 2-{5-Chloro-2-[1-methoxy-7-(2,2,2-trifluoro-ethylamino)-6,7,8,9-tetrahydro-5H-benzocyclohepten-2-ylamino]-pyrimidin-4-ylamino}-N,N-dimethyl-benzenesulfonamide]
IC50 [1, 7]: > 10 µM
IC50 [2, 8]: < 0.1 µM

Compound: CCN1C(=O)[C@H](N(C)C)CCc2c1ccc(Nc1ncc(Cl)c(N[C@H]3[C@@H](C(N)=O)[C@@H]4C=C[C@H]3C4)n1)c2OC (single isomer, unassigned) [Example 1346]
IC50 [1, 3]: 1 to 10 µM
IC50 [2, 4]: < 0.1 µM

Compound: CNC(=O)c1cccc(F)c1Nc1nc(Nc2ccc3c(c2)NC(=O)CCO3)ncc1Cl [Example 1221, 2-[5-Chloro-2-(8-oxo-6,7,8,9-tetrahydro-5-oxa-9-aza-benzocyclohepten-2-ylamino)-pyrimidin-4-ylamino]-3-fluoro-N-methyl-benzamide]
IC50 [1, 3]: < 0.1 µM
IC50 [2, 4]: 0.1 to 1 µM

Compound: CCN1C(=O)CCC(C)(C)c2cc(Nc3ncc(Cl)c(N[C@H]4[C@@H](C(N)=O)[C@@H]5C=C[C@H]4C5)n3)c(OC)cc21 [Example 1314, (1S,2S,3R,4R)-3-[5-Chloro-2-(1-ethyl-8-methoxy-5,5-dimethyl-2-oxo-2,3,4,5-tetrahydro-1H-benzo[b]azepin-7-ylamino)-pyrimidin-4-ylamino]-bicyclo[2.2.1]hept-5-ene-2-carboxylic acid amide]
IC50 [1, 3]: > 10 µM
IC50 [2, 4]: < 0.1 µM

Compound: 2-[5-Chloro-2-(1-methyl-1,2,3,5-tetrahydro-benzo[e][1,4]oxazepin-7-ylamino)-pyrimidin-4-ylamino]-N-(2-hydroxy-ethyl)-benzamide and 2-{2-[5-Chloro-2-(1-methyl-1,2,3,5-tetrahydro-benzo[e][1,4]oxazepin-7-ylamino)-pyrimidin-4-ylamino]-phenyl}-oxazolidin-2-ol [Example 16]
IC50 [1, 9]: < 0.1 µM
IC50 [2, 10]: < 0.1 µM

Compound: COc1c(Nc2ncc(Cl)c(Nc3ccccc3S(=O)(=O)N(C)C)n2)ccc2c1CCC(NCC(F)F)CC2 (stereo not shown) [Example 683, 2-{5-Chloro-2-[7-(2,2-difluoro-ethylamino)-1-methoxy-6,7,8,9-tetrahydro-5H-benzocyclohepten-2-ylamino]-pyrimidin-4-ylamino}-N,N-dimethyl-benzenesulfonamide]
IC50 [1, 7]: > 10 µM
IC50 [2, 8]: < 0.1 µM
